From the supplement of paper PMC10307832

Key:
Experiment in all cases: relative viability (nuclei count vs DMSO), 5 days (fraction); higher = more cells survive
A-427 = system: A-427
Outline: (§1)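 Lung cancer cell lines were pin-tool dosed in 1536-well plates on the day after seeding, with either a lone drug or a fixed anchor-drug dose plus five library-drug doses (not always all listed) in √10 steps. Nuclei were counted on 4× images after 5 days. Relative viability is the ratio of treated-well to vehicle-well nuclei counts, with each value a median of duplicate plates.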

CAL-12T = system: CAL-12T
Outline: as §1

COR-L 105 = system: COR-L 105
Outline: as §1

EMC-BAC-2 = system: EMC-BAC-2
Outline: as §1

HARA = system: HARA
Outline: as §1

HCC-366 = system: HCC-366
Outline: as §1

HCC-827 = system: HCC-827
Outline: as §1

HOP-62 = system: HOP-62
Outline: as §1

LCLC-103H = system: LCLC-103H
Outline: as §1

NCI-H1355 = system: NCI-H1355
Outline: as §1

NCI-H1395 = system: NCI-H1395
Outline: as §1

NCI-H1437 = system: NCI-H1437
Outline: as §1

NCI-H1755 = system: NCI-H1755
Outline: as §1

NCI-H1792 = system: NCI-H1792
Outline: as §1

NCI-H1915 = system: NCI-H1915
Outline: as §1

NCI-H1975 = system: NCI-H1975
Outline: as §1

NCI-H2009 = system: NCI-H2009
Outline: as §1

NCI-H2228 = system: NCI-H2228
Outline: as §1

NCI-H23 = system: NCI-H23
Outline: as §1

NCI-H460 = system: NCI-H460
Outline: as §1

NCI-H727 = system: NCI-H727
Outline: as §1

SK-LU-1 = system: SK-LU-1
Outline: as §1

SW 1573 = system: SW 1573
Outline: as §1

`Oc1nc(-c2ccc(C(F)(F)F)cc2)nc2c1CSCC2` [XAV939] + C[C@]1(O)C[C@@H](c2nc(-c3ccc4ccc(-c5ccccc5)nc4c3)c3c(N)nccn32)C1 [Linsitinib] (partner 1 µM) showed a relative viability (A-427; first compound 0.08 µM) of 1.02, a relative viability (A-427; first compound 0.253 µM) of 1.12 and a relative viability (A-427; first compound 0.8 µM) of 1.08. The relative viability (A-427; first compound 2.53 µM) was 1.08, the relative viability (CAL-12T; first compound 0.08 µM) was 0.87 and the relative viability (CAL-12T; first compound 0.253 µM) was 0.809. The relative viability (CAL-12T; first compound 0.8 µM) was 0.667, the relative viability (CAL-12T; first compound 2.53 µM) was 0.667 and the relative viability (COR-L 105; first compound 0.08 µM) was 1. For the same compound, the relative viability (COR-L 105; first compound 0.253 µM) was 0.98, the relative viability (COR-L 105; first compound 0.8 µM) was 0.868 and the relative viability (COR-L 105; first compound 2.53 µM) was 0.561. For the same compound, the relative viability (EMC-BAC-2; first compound 0.08 µM) was 0.868, the relative viability (EMC-BAC-2; first compound 0.253 µM) was 0.705 and the relative viability (EMC-BAC-2; first compound 0.8 µM) was 0.711. The relative viability (EMC-BAC-2; first compound 2.53 µM) was 0.511, the relative viability (HARA; first compound 0.08 µM) was 1.25 and the relative viability (HARA; first compound 0.253 µM) was 0.414. For the same compound, the relative viability (HARA; first compound 0.8 µM) was 0.779, the relative viability (HARA; first compound 2.53 µM) was 0.956 and the relative viability (HCC-366; first compound 0.08 µM) was 0.626. The relative viability (HCC-366; first compound 0.253 µM) was 0.5, the relative viability (HCC-366; first compound 0.8 µM) was 0.605 and the relative viability (HCC-366; first compound 2.53 µM) was 0.596. For the same compound, the relative viability (HCC-827; first compound 0.08 µM) was 0.995, the relative viability (HCC-827; first compound 0.253 µM) was 0.91 and the relative viability (HCC-827; first compound 0.8 µM) was 0.952. For the same compound, the relative viability (HCC-827; first compound 2.53 µM) was 0.942, the relative viability (HOP-62; first compound 0.08 µM) was 1.01 and the relative viability (HOP-62; first compound 0.253 µM) was 0.882. For the same compound, the relative viability (HOP-62; first compound 0.8 µM) was 0.954, the relative viability (HOP-62; first compound 2.53 µM) was 0.939 and the relative viability (LCLC-103H; first compound 0.08 µM) was 1.05. It also gave a relative viability (LCLC-103H; first compound 0.253 µM) of 0.943, a relative viability (LCLC-103H; first compound 0.8 µM) of 1.19 and a relative viability (LCLC-103H; first compound 2.53 µM) of 1.02. For the same compound, the relative viability (NCI-H1355; first compound 0.08 µM) was 0.867, the relative viability (NCI-H1355; first compound 0.253 µM) was 0.783 and the relative viability (NCI-H1355; first compound 0.8 µM) was 0.82. It also gave a relative viability (NCI-H1355; first compound 2.53 µM) of 0.666, a relative viability (NCI-H1395; first compound 0.08 µM) of 1.09 and a relative viability (NCI-H1395; first compound 0.253 µM) of 1.04. The relative viability (NCI-H1395; first compound 0.8 µM) was 1.11, the relative viability (NCI-H1395; first compound 2.53 µM) was 0.974 and the relative viability (NCI-H1437; first compound 0.08 µM) was 1.21. The relative viability (NCI-H1437; first compound 0.253 µM) was 0.878, the relative viability (NCI-H1437; first compound 0.8 µM) was 0.873 and the relative viability (NCI-H1437; first compound 2.53 µM) was 0.477. For the same compound, the relative viability (NCI-H1755; first compound 0.08 µM) was 0.975, the relative viability (NCI-H1755; first compound 0.253 µM) was 0.865 and the relative viability (NCI-H1755; first compound 0.8 µM) was 0.969. It also gave a relative viability (NCI-H1755; first compound 2.53 µM) of 0.921, a relative viability (NCI-H1792; first compound 0.08 µM) of 0.672 and a relative viability (NCI-H1792; first compound 0.253 µM) of 0.537. The relative viability (NCI-H1792; first compound 0.8 µM) was 0.557, the relative viability (NCI-H1792; first compound 2.53 µM) was 0.453 and the relative viability (NCI-H1915; first compound 0.08 µM) was 1.13. The relative viability (NCI-H1915; first compound 0.253 µM) was 1.11, the relative viability (NCI-H1915; first compound 0.8 µM) was 1.04 and the relative viability (NCI-H1915; first compound 2.53 µM) was 1.11. It also gave a relative viability (NCI-H1975; first compound 0.08 µM) of 0.854, a relative viability (NCI-H1975; first compound 0.253 µM) of 0.711 and a relative viability (NCI-H1975; first compound 0.8 µM) of 0.97. For the same compound, the relative viability (NCI-H1975; first compound 2.53 µM) was 0.673, the relative viability (NCI-H2009; first compound 0.08 µM) was 1.19 and the relative viability (NCI-H2009; first compound 0.253 µM) was 0.904. The relative viability (NCI-H2009; first compound 0.8 µM) was 1.17, the relative viability (NCI-H2009; first compound 2.53 µM) was 1.09 and the relative viability (NCI-H2228; first compound 0.08 µM) was 0.684. It also gave a relative viability (NCI-H2228; first compound 0.253 µM) of 0.683, a relative viability (NCI-H2228; first compound 0.8 µM) of 0.81 and a relative viability (NCI-H2228; first compound 2.53 µM) of 0.551. The relative viability (NCI-H23; first compound 0.08 µM) was 0.612, the relative viability (NCI-H23; first compound 0.253 µM) was 0.559 and the relative viability (NCI-H23; first compound 0.8 µM) was 0.647. For the same compound, the relative viability (NCI-H23; first compound 2.53 µM) was 0.433, the relative viability (NCI-H460; first compound 0.08 µM) was 0.988 and the relative viability (NCI-H460; first compound 0.253 µM) was 0.651. For the same compound, the relative viability (NCI-H460; first compound 0.8 µM) was 0.959, the relative viability (NCI-H460; first compound 2.53 µM) was 0.778 and the relative viability (NCI-H727; first compound 0.08 µM) was 0.315. For the same compound, the relative viability (NCI-H727; first compound 0.253 µM) was 0.246, the relative viability (NCI-H727; first compound 0.8 µM) was 0.233 and the relative viability (NCI-H727; first compound 2.53 µM) was 0.372. For the same compound, the relative viability (SK-LU-1; first compound 0.08 µM) was 1.2, the relative viability (SK-LU-1; first compound 0.253 µM) was 1.03 and the relative viability (SK-LU-1; first compound 0.8 µM) was 1.02. The relative viability (SK-LU-1; first compound 2.53 µM) was 1.07, the relative viability (SW 1573; first compound 0.08 µM) was 0.78 and the relative viability (SW 1573; first compound 0.253 µM) was 0.675. For the same compound, the relative viability (SW 1573; first compound 0.8 µM) was 0.739 and the relative viability (SW 1573; first compound 2.53 µM) was 0.635.
